Test results from patent US8652505B2, “Coating for medical implants” (Southwest Research Institute, priority 2010, dated 2014).

Tested on: methicillin resistant Staphylococcus aureus (MRSA) bacteria (strain: ATCC#33591)
Experiment: Bacteria inhibition test on Mueller-Hinton agar (zone of inhibition / MIC)
Format: cell-based
Experimental: Bacteria inhibition tests were performed on Agar according to the standard method by using methicillin resistant Staphylococcus aureus (MRSA) bacteria (strain: ATCC#33591) in order to determine if the released vancomycin was active and unaffected by the coating and polymerization procedures described herein. The bacteria suspensions were cultured onto separate Mueller-Hinton agar plates at a concentration of 1−2×10^8 CFU/mL (CFU=colony forming unites) and incubated at 37° C. Released vancomycin, free vancomycin, and a standard vancomycin disk (loaded with 30 μg of vancomycin) were compared. After 24 hrs, the zone of inhibition was measured. To measure the sensitivity or the minimum inhibition concentration (MIC), different concentrations of vancomycin were loaded onto cellulose discs (40, 20, 10, 5, 2.5, and 1.25 μg per disc, N=3) and the zone of inhibition was measured.

Structure (SMILES) | activity of released drug in bacteria inhibition test (zone of inhibition after 24 hrs, 37° C., compared with free vancomycin and standard 30 μg disk) | MIC (vancomycin loaded on cellulose discs, against S. Aureus, FIG. 10) [µg]
CN[C@H](CC(C)C)C(=O)N[C@H]1C(=O)N[C@@H](CC(N)=O)C(=O)N[C@H]2C(=O)N[C@H]3C(=O)N[C@H](C(=O)N[C@H](C(=O)O)c4cc(O)cc(O)c4-c4cc3ccc4O)[C@H](O)c3ccc(c(Cl)c3)Oc3cc2cc(c3O[C@@H]2O[C@H](CO)[C@@H](O)[C@H](O)[C@H]2O[C@H]2C[C@](C)(N)[C@H](O)[C@H](C)O2)Oc2ccc(cc2Cl)[C@H]1O [released drug, vancomycin] | same activity as the free drug and standard drug | –
CN[C@H](CC(C)C)C(=O)N[C@H]1C(=O)N[C@@H](CC(N)=O)C(=O)N[C@H]2C(=O)N[C@H]3C(=O)N[C@H](C(=O)N[C@H](C(=O)O)c4cc(O)cc(O)c4-c4cc3ccc4O)[C@H](O)c3ccc(c(Cl)c3)Oc3cc2cc(c3O[C@@H]2O[C@H](CO)[C@@H](O)[C@H](O)[C@H]2O[C@H]2C[C@](C)(N)[C@H](O)[C@H](C)O2)Oc2ccc(cc2Cl)[C@H]1O [vancomycin] | – | 0.5 to 1
